Results from patent US20090317476A1, “COMBINATION OF DEHYDROEPIANDROSTERONE OR DEHYDROEPIANDROSTERONE-SULFATE WITH A LEUKOTRIENE RECEPTOR ANTAGONIST FOR TREATMENT OF ASTHMA OR CHRONIC OBSTRUCTIVE PULMONARY DISEASE” (priority 2003, published 2009).
Where “and” joins values, the source holds several entries; their conditions need not be identical. Equal values may be shown once.

Tests used:
[1] = Particle size by Malvern Mastersizer X / light microscope after jet milling or spray drying; type: physicochemical
Experimental: Approximately 1 g sample was passed through the jet mill, once, and approximately 2 g sample were passed through the jet mill twice. […] The resulting solution was sonicated for 3 minutes and appeared fully dispersed. The dispersed solutions were tested on a Malvern Mastersizer X with a small volume sampler (SVS) attachment. One sample of dispersed material was tested 5 times. The median particle size or D (v, 0.5) of unmilled material was 52.56 μm and the % RSD (relative standard deviation) was 7.61 for the 5 values. The D (v, 0.5) for a single pass through the jet mill was 3.90 μm and the % RSD was 1.27, and the D (v, 0.5) from a double pass through the jet mill 3.25 μm and the % RSD was 3.10.
The solution was spray-dried with a B-191 Mini Spray-Drier (Buchi, Flawil, Switzerland) with an inlet temperature of 55° C., outlet temperature of 40° C., at 100% aspirator, at 10% pump, nitrogen flow at 40 mbar and spray flow at 600 units. The spray-dried product was suspended in hexane and Span85 surfactant added to reduce agglomeration. The dispersions were sonicated with cooling for 3-5 minutes for complete dispersion and the dispersed solutions tested on a Malvern Mastersizer X with a Small Volume Sampler (SVS) attachment. […] Visual examination by light microscope of the dispersions of each batch confirmed that spray drying produced small respirable size particles. The mean particle size was 2.4 μm and 2.0 μm for each batch, respectively.

[2] = Solubility of DHEA-S as a function of NaCl and temperature; type: physicochemical; conditions: 20 mM Na^+; Ksp 1316 mM^2; 15° C.
Description: Inhalation of pure water can produce a cough stimulus. […] The temperature effect is weaker at high NaCl concentrations.

[3] = Short-term solution stability of DHEA-S formulation; type: physicochemical; conditions: for Appearance on storage: 10 mg/mL in 0.12% NaCl
Experimental: Aliquots of this solution are filled into clear glass vials and stored at RT (24-26° C.) and at 40° C. The samples are checked daily for DHEA-S content, DHEA content, and appearance. For each time point, duplicate samples are withdrawn and diluted from each vial. […] The study is stopped on day three. […] The solution should easily be stable for the day of reconstitution in a clinical trial. The following section describes the aerosol properties of this formulation.

[4] = test system: rat peritoneal mast cells; test: Mast cell degranulation (histamine secretion) after compound 48/80; type: cell-based
Description: Leukotrienes are synthesized within—although not exclusively by the mast cell (Gilchrist, M., McCauley, S.D., & Befus, A. D. (2004) Expression, localization, and regulation of NOS in human mast cell lines: effects on leukotriene production. Blood 104, 462-469.). We determined whether DHEA-sulfate would reduce mast cell degranulation after stimulation with compound 48/80 in rat peritoneal mast cells. Mast cell degranulation was quantified by measurement of histamine, another substance contained within the secretory granules of mast cells. The simple measurement of released histamine is used as a convenient surrogate marker for the release of leukotrienes.
Freshly isolated rat peritoneal mast cells (2×10^5 cells) were pre-incubated for 5 min at 37° C. in a Balanced Salt Solution containing 150 mM NaCl (pH 7.4), 2.7 mM KCl, 0.9 mM CaCl2, 4 mM Na2HPO4, 2.7 mM KH2PO4, 1.75 mg/ml BSA and 0.1 μg/ml compound 48/80. Thereafter, DHEAS or water (control) are added and the mixture is incubated for 2 min at 37° C.
Following incubation, the mixture is cooled to 4° C. then centrifuged at 4500 rpm for 5 min. […]
The amount of secreted histamine is quantified by measuring the fluorescence intensity at λex=360 nm and λem=450 nm using a spectrofluorimeter (GeminiXS, Molecular Devices). The results are expressed as a percent inhibition of control histamine secretion.

[5] = Physicochemical testing of DHEA-S dihydrate before and after micronization; conditions: for Water (% w/w): Karl Fischer
Experimental: Surface area is determined using five point BET analyses are performed with nitrogen as the adsorbing gas (P/Po=0.05 to 0.30) using a Micromeritics TriStar surface area analyzer. Particle size distributions are measured by laser diffraction using a Micromeritics Saturn Digisizer where the particles are suspended in mineral oil with sodium dioctyl sodium sulfosuccinate as a dispersing agent. Drug substance water content is measured by Karl Fischer titration (Schott Titroline KF). Pure water is used as the standard and all relative standard deviations for triplicates are less than 1%. Powder is added directly to the titration media.

[6] = Solid-state stability neat and with lactose at 50° C. (DHEA formed, HPLC); type: physicochemical
Description: These conditions were used to stress the formulation in order to predict its long-term stability results. […] The primary degradant is DHEA. […] The materials on accelerated storage become more cohesive with time as evidenced by clumping during sample weighing for chemical analysis. […] This is a considerable disadvantage since lactose is the most commonly used inhalation excipient for dry powder formulations. Continuing with the virtually anhydrous form would mean limiting formulations to neat powder or undertaking more comprehensive safety studies to use a novel excipient.

[7] = cited from earlier work
Intracellular adenosine = test: In vivo effect on adenosine levels in rat tissues
Experimental: Folinic acid (50 mg/kg) was administered intraperitoneally once daily for fourteen days. […] Hearts were removed from animals and flash frozen in liquid nitrogen with 10 s of death. Liver and lungs were removed en bloc and flash frozen with 30 s of death. Brain tissue was subsequently dissected.

HT-29 SF cells = test: DHEA effect on cell cycle, flow cytometry; type: cell-based, human; conditions: 25, 50, 200 μM; 24-72 hours
Experimental: Cells were plated at 10^5/60-mm dish in duplicate. […] Cultures were trypsinized following 0, 24, 48, or 74 hours and fixed and stained using a modification of a procedure of Bauer et al., Cancer Res. 46, 3173-3178 (1986). Briefly, cells were collected by centrifugation and resuspended in cold phosphate-buffered saline. Cells were fixed in 70% ethanol, washed, and resuspended in phosphate-buffered saline.
After 24, 48, and 72 hours, cells were harvested, fixed in ethanol, and stained with propidium iodide, and the DNA content/cell was determined by flow cytometric analysis. The percentage of cells in G1, S, and G2M phases was calculated using the Cellfit cell cycle analysis program. S phase is marked by a quadrangle for clarity. Representative histograms from duplicate determinations are shown. The experiment was repeated three times.

C[C@]12CC[C@H](OS(=O)(=O)[O-])CC1=CC[C@@H]1[C@@H]2CC[C@]2(C)C(=O)CC[C@@H]12.[Na+] [Anhydrous DHEA-S]
D (v, 0.5) ([1]; double pass through the jet mill): 3.25 μm
D (v, 0.5) ([1]; single pass through the jet mill): 3.90 μm
median particle size or D (v, 0.5) ([1]; unmilled material): 52.56 μm

C[C@]12CC[C@H](OS(=O)(=O)[O-])CC1=CC[C@@H]1[C@@H]2CC[C@]2(C)C(=O)CC[C@@H]12.[Na+] [DHEA-S, sodium dehydroepiandrostenone sulfate]
calculated DHEA-S solution concentration [2]: 10.7 mg/mL
calculated DHEA-S^− solution concentration [2]: 27.5 mM
Stability of nebulizer formulation ([3]; 7.5 mg/mL of DHEA-S in 0.12% NaCl, RT): stable for at least one day at RT
Appearance on storage ([3]; 40° C.): became cloudy after two days of storage
Appearance on storage ([3]; RT (24-26° C.)): slight precipitate is observed on the third day
maximal effect, percent inhibition of control histamine secretion ([4]; at 0.1 uM, compound 48/80 stimulated): 69.9%
solubility under the assay conditions ([4]; at 10^-4 M): highly limited

C[C@]12CC[C@H](OS(=O)(=O)[O-])CC1=CC[C@@H]1[C@@H]2CC[C@]2(C)C(=O)CC[C@@H]12.O.O.[Na+] [DHEA-S•dihydrate]
Particle size (D50%) ([5]; Bulk): 31 microns
Water (% w/w) ([5]; Bulk): 8.5 % w/w
Particle size (D50%) ([5]; Micronized): 3.7 microns
Water (% w/w) ([5]; Micronized): 8.4 % w/w
Surface area (m^2/g) ([5]; Micronized, five point BET): 4.9 m^2/g
Percent DHEA formed ([6]; DHEA-S dihydrate, 50° C., 1 week): 0.216%
Percent DHEA formed ([6]; DHEA-S dihydrate, 50° C., 3 weeks): 0.317%
Percent DHEA formed ([6]; DHEA-S dihydrate, 50° C., 4 weeks): 0.374%
water content, starting value ([6]; before storage): 8.8%
Percent DHEA formed ([6]; dihydrate, Control, neat, sealed, 25° C., 4 weeks): 0.218%
Percent DHEA formed ([6]; dihydrate, Control, neat, sealed, 25° C., Time (Weeks)): 0.213%
water content after accelerated storage ([6]; one week at 50° C.): 8.66%

COc1cc(C(=O)NS(=O)(=O)c2ccccc2C)ccc1Cc1cn(C)c2ccc(NC(=O)OC3CCCC3)cc12 [Zafirlukast, 4(5-cyclopentyloxy-carbonylamino-1-methyl-indol-3ylmethyl)-3methoxy-N-o-tolylsulfonylbenzamide]
Solubility in acetone [7]: freely soluble
Solubility in dimethylsulfoxide [7]: freely soluble
Solubility in methanol [7]: slightly soluble
Solubility in tetrahydrofuran [7]: freely soluble
Solubility in water [7]: practically insoluble

C[C@]12CC[C@H](OS(=O)(=O)[O-])CC1=CC[C@@H]1[C@@H]2CC[C@]2(C)C(=O)CC[C@@H]12.[Na+] [Spray-Dried Drug Product]
mean particle sizes ([1]; two batches of spray dried material, Malvern Mastersizer X, listed as spray-dried product): 5.07±0.70 μm and 6.66±0.91 μm

Nc1nc(=O)c2c([nH]1)NCC(CNc1ccc(C(=O)N[C@@H](CCC(=O)O)C(=O)O)cc1)N2C=O (mixture of isomers) [Folinic Acid, Folinic acid]
Effect on adenosine levels, administered alone (Intracellular adenosine; all organs studied): increase in adenosine levels
Effect of coadministration of folinic acid on steroid-mediated adenosine depletion (Intracellular adenosine; with DHEA or methyltestosterone): completely abrogated steroid-mediated adenosine depletion

C[C@]12CC[C@H](O)CC1=CC[C@@H]1[C@@H]2CC[C@]2(C)C(=O)CC[C@@H]12 [DHEA, 3β-hydroxyandrost-5-en-17-one]
Effect on cell cycle distribution (HT-29 SF cells): G1 block
